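Interpolation was linear, between the two tested concentrations surrounding the appropriate level; five concentrations were tested over 48 hours in 96-well plates. GI50: concentration for 50% inhibition of growth. Definition used: TGI = concentration required for complete inhibition of growth.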
These compounds were tested on 786-0 renal (assay: NCI-60 cell line screen, 48 h).
`Cc1cc(I)cc(CN(CCCN(C)C)C(C)C)c1O` gave a GI50 of 15.7 µM and a TGI of 30.5 µM. With `c1ccc(Sc2ncnc3ccccc23)cc1` the GI50 was 14.9 µM and the TGI was 34.5 µM. In the case of `CCN(C(=O)N1CCN(c2cc3c(cc2F)c(=O)c(C(=O)O)cn3C2CC2)CC1)c1nc(-c2ccc(Cl)cc2)cs1`, the GI50 is reported as 2.41 µM and the TGI is reported as 15.4 µM. `CC(C)=CCC(O)C1=CC(=O)c2c(O)ccc(O)c2C1=O` (stereo not given) gave a TGI of 1.5 µM.

What follows are compounds tested on MOLT-4 leukemia (assay: NCI-60 cell line screen, 48 h).
For `Cc1cc(I)cc(CN(CCCN(C)C)C(C)C)c1O`, the GI50 was 16.3 µM and the TGI was 34.7 µM. `c1ccc(Sc2ncnc3ccccc23)cc1` showed a GI50 of 4.98 µM and a TGI of 36 µM. Work on `CCN(C(=O)N1CCN(c2cc3c(cc2F)c(=O)c(C(=O)O)cn3C2CC2)CC1)c1nc(-c2ccc(Cl)cc2)cs1` yielded a GI50 of 0.542 µM and a TGI of 3.67 µM. `CC(C)=CCC(O)C1=CC(=O)c2c(O)ccc(O)c2C1=O` (stereo not given) gave a TGI of 0.135 µM.

The compounds below were run on T-47D breast (assay: NCI-60 cell line screen, 48 h).
Compound `Cc1cc(I)cc(CN(CCCN(C)C)C(C)C)c1O` has a GI50 of 15.2 µM and a TGI of 39.8 µM. Compound `c1ccc(Sc2ncnc3ccccc23)cc1` has a GI50 of 9.72 µM and a TGI of 28.4 µM. In the case of `CCN(C(=O)N1CCN(c2cc3c(cc2F)c(=O)c(C(=O)O)cn3C2CC2)CC1)c1nc(-c2ccc(Cl)cc2)cs1`, the GI50 is reported as 1.99 µM and the TGI is reported as > 100 µM.

These compounds were tested on SR leukemia (assay: NCI-60 cell line screen, 48 h).
With `Cc1cc(I)cc(CN(CCCN(C)C)C(C)C)c1O` the GI50 was 15.9 µM and the TGI was 35.8 µM. `c1ccc(Sc2ncnc3ccccc23)cc1` gave a GI50 of 4.78 µM and a TGI of 53.1 µM. For `CCN(C(=O)N1CCN(c2cc3c(cc2F)c(=O)c(C(=O)O)cn3C2CC2)CC1)c1nc(-c2ccc(Cl)cc2)cs1`, the GI50 was 0.272 µM and the TGI was 0.897 µM.

What follows are compounds tested on OVCAR-3 ovarian (assay: NCI-60 cell line screen, 48 h).
`Cc1cc(I)cc(CN(CCCN(C)C)C(C)C)c1O` showed a GI50 of 18.8 µM and a TGI of 34.8 µM. `c1ccc(Sc2ncnc3ccccc23)cc1` showed a GI50 of 14.6 µM and a TGI of 28 µM. With `CCN(C(=O)N1CCN(c2cc3c(cc2F)c(=O)c(C(=O)O)cn3C2CC2)CC1)c1nc(-c2ccc(Cl)cc2)cs1` the GI50 was 1.22 µM and the TGI was > 100 µM. In the case of `CC(C)=CCC(O)C1=CC(=O)c2c(O)ccc(O)c2C1=O` (stereo not given), the TGI is reported as 2.55 µM.

These compounds were tested on ACHN renal (assay: NCI-60 cell line screen, 48 h).
With `Cc1cc(I)cc(CN(CCCN(C)C)C(C)C)c1O` the GI50 was 17.3 µM and the TGI was 31.6 µM. For `c1ccc(Sc2ncnc3ccccc23)cc1`, the GI50 was 11 µM and the TGI was 31.6 µM. In the case of `CCN(C(=O)N1CCN(c2cc3c(cc2F)c(=O)c(C(=O)O)cn3C2CC2)CC1)c1nc(-c2ccc(Cl)cc2)cs1`, the GI50 is reported as 1.24 µM and the TGI is reported as 10.1 µM. For `CC(C)=CCC(O)C1=CC(=O)c2c(O)ccc(O)c2C1=O` (stereo not given), the TGI was 1.86 µM.

These compounds were tested on SNB-19 CNS (assay: NCI-60 cell line screen, 48 h).
`Cc1cc(I)cc(CN(CCCN(C)C)C(C)C)c1O` gave a GI50 of 18.4 µM and a TGI of 42.5 µM. With `c1ccc(Sc2ncnc3ccccc23)cc1` the GI50 was 18.6 µM and the TGI was 51.5 µM. Work on `CCN(C(=O)N1CCN(c2cc3c(cc2F)c(=O)c(C(=O)O)cn3C2CC2)CC1)c1nc(-c2ccc(Cl)cc2)cs1` yielded a GI50 of 1.09 µM and a TGI of 49.5 µM. In the case of `CC(C)=CCC(O)C1=CC(=O)c2c(O)ccc(O)c2C1=O` (stereo not given), the TGI is reported as 7.78 µM.

The compounds below were run on COLO 205 colon (assay: NCI-60 cell line screen, 48 h).
With `Cc1cc(I)cc(CN(CCCN(C)C)C(C)C)c1O` the GI50 was 14.7 µM and the TGI was 27.8 µM. `c1ccc(Sc2ncnc3ccccc23)cc1` showed a GI50 of 15 µM and a TGI of 28.3 µM. With `CCN(C(=O)N1CCN(c2cc3c(cc2F)c(=O)c(C(=O)O)cn3C2CC2)CC1)c1nc(-c2ccc(Cl)cc2)cs1` the GI50 was 2 µM and the TGI was 6.17 µM. Work on `CC(C)=CCC(O)C1=CC(=O)c2c(O)ccc(O)c2C1=O` (stereo not given) yielded a TGI of 0.357 µM.

Each compound was assayed on SK-MEL-28 melanoma (assay: NCI-60 cell line screen, 48 h).
`Cc1cc(I)cc(CN(CCCN(C)C)C(C)C)c1O` showed a GI50 of 16.5 µM and a TGI of 34.3 µM. With `c1ccc(Sc2ncnc3ccccc23)cc1` the GI50 was 23.7 µM and the TGI was 89.2 µM. In the case of `CCN(C(=O)N1CCN(c2cc3c(cc2F)c(=O)c(C(=O)O)cn3C2CC2)CC1)c1nc(-c2ccc(Cl)cc2)cs1`, the GI50 is reported as 1.91 µM and the TGI is reported as > 100 µM. With `CC(C)=CCC(O)C1=CC(=O)c2c(O)ccc(O)c2C1=O` (stereo not given) the TGI was 2.86 µM.

Each compound was assayed on CAKI-1 renal (assay: NCI-60 cell line screen, 48 h).
`Cc1cc(I)cc(CN(CCCN(C)C)C(C)C)c1O` showed a GI50 of 16.5 µM and a TGI of 33.6 µM. `c1ccc(Sc2ncnc3ccccc23)cc1` showed a GI50 of 12.7 µM and a TGI of 32.3 µM. Compound `CCN(C(=O)N1CCN(c2cc3c(cc2F)c(=O)c(C(=O)O)cn3C2CC2)CC1)c1nc(-c2ccc(Cl)cc2)cs1` has a GI50 of 2.17 µM and a TGI of 11.4 µM. Work on `CC(C)=CCC(O)C1=CC(=O)c2c(O)ccc(O)c2C1=O` (stereo not given) yielded a TGI of 0.986 µM.

Each compound was assayed on A498 renal (assay: NCI-60 cell line screen, 48 h).
With `Cc1cc(I)cc(CN(CCCN(C)C)C(C)C)c1O` the GI50 was 21 µM and the TGI was 37.8 µM. In the case of `c1ccc(Sc2ncnc3ccccc23)cc1`, the GI50 is reported as 15.4 µM and the TGI is reported as 39.2 µM. `CCN(C(=O)N1CCN(c2cc3c(cc2F)c(=O)c(C(=O)O)cn3C2CC2)CC1)c1nc(-c2ccc(Cl)cc2)cs1` gave a GI50 of 0.0298 µM and a TGI of 1.6 µM. `CC(C)=CCC(O)C1=CC(=O)c2c(O)ccc(O)c2C1=O` (stereo not given) was tested, and the TGI was 4.08 µM.

What follows are compounds tested on SK-OV-3 ovarian (assay: NCI-60 cell line screen, 48 h).
For `Cc1cc(I)cc(CN(CCCN(C)C)C(C)C)c1O`, the GI50 was 15.1 µM and the TGI was 30.9 µM. In the case of `c1ccc(Sc2ncnc3ccccc23)cc1`, the GI50 is reported as 22.1 µM and the TGI is reported as 49.6 µM. `CCN(C(=O)N1CCN(c2cc3c(cc2F)c(=O)c(C(=O)O)cn3C2CC2)CC1)c1nc(-c2ccc(Cl)cc2)cs1` gave a GI50 of 1.83 µM and a TGI of 6.46 µM. In the case of `CC(C)=CCC(O)C1=CC(=O)c2c(O)ccc(O)c2C1=O` (stereo not given), the TGI is reported as 24 µM.

Each compound was assayed on HT29 colon (assay: NCI-60 cell line screen, 48 h).
Work on `Cc1cc(I)cc(CN(CCCN(C)C)C(C)C)c1O` yielded a GI50 of 9.23 µM and a TGI of 21.2 µM. Work on `c1ccc(Sc2ncnc3ccccc23)cc1` yielded a GI50 of 19.3 µM and a TGI of 44.7 µM. For `CCN(C(=O)N1CCN(c2cc3c(cc2F)c(=O)c(C(=O)O)cn3C2CC2)CC1)c1nc(-c2ccc(Cl)cc2)cs1`, the GI50 was 1.06 µM and the TGI was > 100 µM. `CC(C)=CCC(O)C1=CC(=O)c2c(O)ccc(O)c2C1=O` (stereo not given) showed a TGI of 5.17 µM.

What follows are compounds tested on HCT-116 colon (assay: NCI-60 cell line screen, 48 h).
For `Cc1cc(I)cc(CN(CCCN(C)C)C(C)C)c1O`, the GI50 was 12.6 µM and the TGI was 25.1 µM. `c1ccc(Sc2ncnc3ccccc23)cc1` showed a GI50 of 10.9 µM and a TGI of 23.7 µM. With `CCN(C(=O)N1CCN(c2cc3c(cc2F)c(=O)c(C(=O)O)cn3C2CC2)CC1)c1nc(-c2ccc(Cl)cc2)cs1` the GI50 was 1.1 µM and the TGI was > 100 µM. `CC(C)=CCC(O)C1=CC(=O)c2c(O)ccc(O)c2C1=O` (stereo not given) showed a TGI of 2.6 µM.

The compounds below were run on UO-31 renal (assay: NCI-60 cell line screen, 48 h).
`Cc1cc(I)cc(CN(CCCN(C)C)C(C)C)c1O` was tested, and the GI50 was 14.5 µM and the TGI was 32.6 µM. In the case of `c1ccc(Sc2ncnc3ccccc23)cc1`, the GI50 is reported as 5.07 µM and the TGI is reported as 21.1 µM.

Reference: PubChem BioAssay (NCI)
